Counter-ions that a name gives are not always drawn.
Legend:
rat CB1 receptor = target: T1, rat CB1 receptor (Rattus norvegicus, UniProt P20272); assay: CB1 luciferase reporter gene test (CHOluc9 cells stably transfected with rat CB1); type: cell-based; conditions: forskolin stimulated
T1 construct: contains an open reading frame of 1419 base pairs which corresponds to a protein of 473 amino acids; expressed in transfected cells; host or cells: CHOluc9 reporter cells stably transfected with plasmid CMV-RH (rat CB1 cDNA in pRc/CMV)
T1 sequence (P20272 whole entry): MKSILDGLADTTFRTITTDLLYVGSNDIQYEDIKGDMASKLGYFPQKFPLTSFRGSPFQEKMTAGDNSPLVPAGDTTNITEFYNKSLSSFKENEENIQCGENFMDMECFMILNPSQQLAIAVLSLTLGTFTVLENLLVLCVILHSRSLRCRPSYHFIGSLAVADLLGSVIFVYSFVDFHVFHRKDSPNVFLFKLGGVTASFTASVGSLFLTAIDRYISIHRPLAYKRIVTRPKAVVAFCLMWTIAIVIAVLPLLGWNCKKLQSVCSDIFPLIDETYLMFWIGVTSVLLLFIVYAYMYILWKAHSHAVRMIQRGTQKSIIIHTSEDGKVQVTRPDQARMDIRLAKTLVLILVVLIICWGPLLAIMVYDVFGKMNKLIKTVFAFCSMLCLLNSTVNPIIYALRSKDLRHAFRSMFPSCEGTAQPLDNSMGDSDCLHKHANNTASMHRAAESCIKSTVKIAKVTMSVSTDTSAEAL
Experimental: CB1—Luciferase Reporter Gene Test
1. Cloning of the Rat Cannabinoid Receptor CB1
Total RNA from rat brain (the tissue was taken from freshly killed animals and shock-frozen in liquid nitrogen) was isolated by acidic guanidinium thiocyanate/phenol/chloroform extraction (J. Biol. Chem. 1979, 18, 5294) and converted into cDNA by means of reverse transcriptase and random primers (in each case from Invitrogen). The polymerase chain reaction (PCR, conditions: 4 min 94° C., 1H; 1 min 94° C.; 2 min 53° C.; 1 min 72° C., 50 cycles; 1 min 94° C., 2 min 53° C., 4 min 72° C., 1H) was carried out in a Perkin Elmer thermocycler using the enzyme Taq polymerase (Perkin Elmer); the oligonucleotide primers employed (bases 99 to 122: 5′63′, “down”; 1556-1575: 3′75′, “up”) were derived from the published sequence of the rat cannabinoid receptor (Nature 1990, 346, 561) and were synthesized on a DNA synthesizer, model 1380 from Applied Biosystems. One part of the PCR reaction was separated in a 1% strength agarose gel in 1H TBE buffer and then stained with ethidium bromide, only one band having the expected length being visible (approximately 1.5 kb). This PCR product was subcloned into the TA cloning vector (Invitrogen) and the nucleotide sequence of the insert was determined by the dideoxynucleotide chain termination reaction using T7DNA polymerase (Sequenase, USA/Amersham). The insert has a length of 1477 base pairs and contains an open reading frame of 1419 base pairs which corresponds to a protein of 473 amino acids. The number of base pairs, the position of the open reading frame and the number of amino acids agree with the published sequence. Computer analyses were carried out with the aid of the GCG software suite (Genetic Computer Group). The cDNA insert was subcloned into the expression vector pRc/CMV (Invitrogen) after partial digestion with HindIII and NotI (Biolabs). This construct (plasmid CMV-RH) was employed for transfection experiments.
2. Stable Transfection of the CHOluc9 Reporter Cells
CHOluc9 cells were cultured in 50% Dulbecco's modified Eagle medium/50% F-12 (DMEM/F12) which contained 10% foetal calf serum (FCS). Transfections were prepared in 6-well plates. 7.5 μg of Qiagen-purified CMV-RH plasmid DNA were added per […] with the DOTAP transfection system, corresponding to the experimental protocol of the manufacturer (Boehringer Mannheim). Transfected cells were selected using 1 mg/ml G418 and individual clones were obtained by limiting dilution in 96-well plates. Cell lines which express the cannabinoid receptor were identified for the inhibition of reporter gene expression after incubation with the cannabinoid receptor agonist, WIN-55,212-2, in the presence of forskolin. Several stably transfected and subcloned cell lines were further characterized by means of RT-PCR, as described under 1.
3. Test Optimization and Pharmacological Characterization of the CHOCB1 Reporter Cell Line
With the aim of high sensitivity and reproducibility, low variance and high suitability for carrying out on the robotic system, the luciferase test was optimized by variation of several test parameters, such as, for example, cell density, duration of the growth phase and the test incubation, forskolin concentration, medium composition. The following test protocol was used for pharmacological characterization of the cells and for robot-assisted substance screening: the stock cultures were cultured in 50% Dulbecco's modified Eagle medium/50% F-12 (DMEM/F12) with 10% FCS at 37° C. under 10% CO2 and in each case split 1:10 after 2 to 3 days. Test cultures were inoculated into 96-well plates at 5000 cells per well and cultured at 37° C. for 70 hours. The cultures were then carefully washed with phosphate-buffered saline and reconstituted using serum-free ultra-CHO medium (Bio-Whittaker). The substances dissolved in DMSO were diluted 1H in medium and pipetted into the test cultures (maximum DMSO final concentration in the test batch: 0.5%). […]

[1] = Solubility determination by precipitation method in physiological saline; type: physicochemical; conditions: saline or isotonic, kinetic from dmso stock, 25° C., shaken 1 hour, HPLC
Experimental: To determine the solubility, a precipitation method was used:
10 mg of the test substance are completely dissolved in 50 μl of DMSO (stock solution). From this solution, 20 μl are added to 2000 μl of physiological saline. This solution in turn is shaken at 25° C. in a Thermomixer Comfort (from Eppendorf) at 1400 rpm for 1 hour, for equilibration.
The precipitated fractions of the test substance are centrifuged off at 14,000 rpm for 5 min, using a Biofuge 15 from Heraeus. 1300 μl of the supernatant are again centrifuged using a Microfuge from Beckmann, at 45,000 rpm=125,000 g.
10 μl of this centrifugation supernatant are then diluted with 1000 μl of DMSO, and this solution is measured by HPLC. (Hewlett Packard 1090, method: gradient of 100% PBS buffer pH=4 over 15 min to 10% buffer/90% acetonitrile, column: RP18)
The measured peak area of the HPLC determination is converted into the substance concentration using a calibration curve. For the calibration curve, 20 μl of the stock solution are successively diluted with DMSO in such a manner that 5 concentrations of from 2.5 mg/l to 2000 mg/l are obtained. These solutions are likewise measured by HPLC (method see above) and the peak areas are plotted against the concentrations.

rats = assay: Rat hypothermia - agonism testing; type: in vivo; conditions: i.v. administration
Experimental: Five minutes after determination of the basal body temperature via an oesophageal temperature probe, the test substance is administered (i.v.). A control group receives only the solvent of the test substances, likewise i.v. The body temperature is measured 7.5, 15, 30 and 60 minutes after i.v. administration. The group size per dose is 5-7 animals (rats).

| SMILES | IC50 (rat CB1 receptor) | solubility at 1 h [1] | ED−1° C. (effective dose for 1° C. body temperature reduction) (rats) |
| --- | --- | --- | --- |
| CC(C)(C)OC(=O)NCC(=O)OC[C@@H]1Cc2cccc(Oc3cccc(OS(=O)(=O)CCCC(F)(F)F)c3)c2C1 [Example 1, (R)-3-[2-(N-tert-butyloxycarbonylglycinyl)-oxymethyl-indanyl-4-oxy]-phenyl 4,4,4-trifluoro-1-butanesulphonate] | 350 pM |  |  |
| CC(C)(C)OC(=O)NCCCCCCC(=O)OC[C@@H]1Cc2cccc(Oc3cccc(OS(=O)(=O)CCCC(F)(F)F)c3)c2C1 [Example 2, (R)-3-[2-(7-N-tert-Butyloxycarbonylaninoheptanoyloxymethyl)-indanyl-4-oxy]-phenyl 4,4,4-trifluoro-1-butanesulphonate] | 130 pM |  |  |
| NCC(=O)OC[C@@H]1Cc2cccc(Oc3cccc(OS(=O)(=O)CCCC(F)(F)F)c3)c2C1 [Example 5, (R)-3-(2-Glycinyl-oxymethyl)-indanyl-4-oxy)-phenyl 4,4,4-trifluoro-1-butanesulphonate hydrochloride] | 110 pM | 720 µg/mL | 0.03 mg/kg |
| NCCCCCCC(=O)OC[C@@H]1Cc2cccc(Oc3cccc(OS(=O)(=O)CCCC(F)(F)F)c3)c2C1 [Example 6, (R)-3-[2-(7-Aminoheptanoyloxymethyl)-indanyl-4-oxy)-phenyl 4,4,4-trifluoro-1-butanesulphonate hydrochloride] | 850 pM |  |  |
| NCCC(=O)OC[C@@H]1Cc2cccc(Oc3cccc(OS(=O)(=O)CCCC(F)(F)F)c3)c2C1 [Example 7, (R)-3-[2-(3-Aminopropanoyloxymethyl)-indanyl-4-oxy)-phenyl 4,4,4-trifluoro-1-butanesulphonate hydrochloride] | 400 pM |  |  |
| CC(C)[C@H](N)C(=O)OC[C@@H]1Cc2cccc(Oc3cccc(OS(=O)(=O)CCCC(F)(F)F)c3)c2C1 [Example 8, (R)-3-[2-((S)-Valinyloxymethyl)-indanyl-4-oxy]-phenyl 4,4,4-trifluoro-1-butanesulphonate hydrochloride] | 200 pM |  |  |

From patent US6545050B1, “Aryl sulphonamide amino acid esters and analogues” (Bayer Aktiengesellschaft, priority 1998, dated 2003)
